Assay results reported in patent US7304093B2, “Ketone compounds and compositions for cholesterol management and related uses” (Esperion Therapeutics, Inc., priority 2000, dated 2007).
Where two headings read alike, the source gives them in different places.

Assays:
[1] = tested on: female obese Zucker rats; experiment: Serum lipid and glycemic control variables in chow-fed obese female Zucker rats, daily oral gavage for two weeks; type: in vivo, rat; conditions: Rattus norvegicus; for change in vivo at 30 mg/kg: 30 mg/kg daily oral; for change in vivo at 100 mg/kg: 100 mg/kg daily oral; for change in vivo at 59 mg/kg: 59 mg/kg daily oral
Procedure: Ten- to twelve-week old (400-500 grams) female Zucker fatty rats Cr1: (Zuc)-faBR were obtained from Charles River Laboratories. Animals were acclimated to the laboratory environment for seven days. During the acclimation and study period, animals were housed by group in shoebox polycarbonate cages on Cellu-Dri bedding. The temperature and humidity in the animals' quarters (68-78° F.; 30-75% RH) were monitored and the airflow in the room was sufficient to provide several exchanges per hour with 100% fresh filtered air. An automatic timing device provided an alternating 12-hour cycle of light and dark. Rats received pelleted Purina Laboratory Rodent Chow® (5001) prior to and during the drug intervention period except for a 6-hour phase prior to blood sampling. Fresh water was supplied ad libitum via an automatic watering system. Compounds were dissolved, suspended by mixing in a dosing vehicle consisting of 1.5% carboxymethylcellulose/0.2% Tween 20 or 20% ethanol and 80% polyethylene glycol-200 [v/v]. Dose volume of vehicle or vehicle plus each compound was set at 0.25% of body weight in order to deliver the appropriate dose. Doses were administered daily by oral gavage, approximately between 8-10 AM. Regarding blood sampling, animals were fasted for 6 hours prior to all blood collections. Prior to and after 7 days of dosing, a 1.0- to 2.0-mL sample of blood was collected by administering O2/CO2 anesthesia and bleeding from the orbital venous plexus. Following 14 days of dosing, blood was collected by cardiac puncture after euthanasia with CO2. All blood samples were processed for separation of serum and stored at −80° C. until analysis. Commercially available kits were used to determine serum triglycerides (Roche Diagnostic Corporation, Kit No. 148899 or Boehringer Mannheim, Kit No. 1488872), total cholesterol (Roche Diagnostic Corporation, Kit No. 450061), non-esterified fatty acids (Wako Chemicals, Kit No. 994-75409) and β-hydroxybutyrate (Wako Chemicals, Kit No. 417-73501 or Sigma Kit. No. 310-0) on a Hitachi 912 Automatic Analyzer (Roche Diagnostic Corporation). In some instances, an in-house cholesterol reagent was used to determine total serum cholesterol levels. Serum lipoprotein cholesterol levels were determined by lipoprotein profile analysis. Lipoprotein profiles were analyzed using gel-filtration chromatography on a Superose 6HR (1×30 cm) column equipped with on-line detection of total cholesterol as described by Kieft et al (Kieft, K. A.; Bocan, T. M.; Krause, B. R. Rapid on-line determination of cholesterol distribution among plasma lipoproteins after high-performance gel filtration chromatography. J. Lipid Res. 1991, 32, 859-866.). The total cholesterol content of each lipoprotein was calculated by multiplying the independent values determined for serum total cholesterol by the percent area of each lipoprotein in the profile. The percent body weight gain and the ratio of liver to body weight is also determined. Selected data are shown as absolute values or as a percent change of the pretreatment values in Tables 8 and 9.
Select compounds (214c, 210c, and 210g) were further evalutated in the Zucker rat by performing a full dose response and measuring additional scrum variables including markers for diabetes (Tables 10-12).

[2] = tested on: primary rat hepatocytes; experiment: Inhibition of lipid synthesis ([1-14C]-acetate incorporation) in primary cultures of rat hepatocytes; type: cell-based; conditions: Hepatocyte, 4 h incubation with [1-14C]-acetate
Procedure: Compounds were tested for inhibition of lipid synthesis in primary cultures of rat hepatocytes. Male Sprague-Dawley rats were anesthetized with intraperitoneal injection of sodium pentobarbital (80 mg/kg). Rat hepatocytes were isolated essentially as described by the method of Seglen (Seglen, P. O. Hepatocyte suspensions and cultures as tools in experimental carcinogenesis. J. Toxicol. Environ. Health 1979, 5, 551-560). Hepatocytes were suspended in Dulbecco's Modified Eagles Medium containing 25 mM D-glucose, 14 mM HEPES, 5 mM L-glutamine, 5 mM leucine, 5 mM alanine, 10 mM lactate, 1 mM pyruvate, 0.2% bovine serum albumin, 17.4 mM non-essential amino acids, 20% fetal bovine serum, […] and 20 μg/mL gentamycin) and plated at a density of 1.5×10^5 cells/cm^2 on collagen-coated 96-well plates. Four hours after plating, media was replaced with the same media without serum. Cells were grown overnight to allow formation of monolayer cultures. Lipid synthesis incubation conditions were initially assessed to ensure the linearity of [1-^14C]-acetate incorporation into hepatocyte lipids for up to 4 hours. Hepatocyte lipid synthesis inhibitory activity was assessed during incubations in the presence of 0.25 μCi [1-^14C]-acetate/well (final radiospecific activity in assay is 1 Ci/mol) and 0, 1, 3, 10, 30, 100 or 300 μM of compounds for 4 hours. At the end of the 4-hour incubation period, medium was discarded and cells were washed twice with ice-cold phosphate buffered saline and stored frozen prior to analysis. To determine total lipid synthesis, 170 μl of MicroScint-E® and 50 μl water was added to each well to extract and partition the lipid soluble products to the upper organic phase containing the scintillant. Lipid radioactivity was assessed by scintillation spectroscopy in a Packard TopCount NXT.

[3] = 168 h, 1 wk, Table 9, read-out: HDL-Cholesterol, Percent Change from Pre-Treatment
[4] = 168 h, 1 wk, Table 9, read-out: NonHDL-Cholesterol, Percent Change from Pre-Treatment
[5] = 168 h, 1 wk, Table 9, read-out: TG, Percent Change from Pre-Treatment
[6] = 336 h, 2 wk, Table 9, read-out: HDL-Cholesterol, Percent Change from Pre-Treatment
[7] = 336 h, 2 wk, Table 9, read-out: NonHDL-Cholesterol, Percent Change from Pre-Treatment
[8] = 336 h, 2 wk, Table 9, read-out: TG, Percent Change from Pre-Treatment
[9] = Table 7, ranges: confidence of estimate insufficient to assign a value
[10] = 168 h, 1 wk, 100% = 2-fold increase, Table 8, read-out: HDL-Cholesterol, Percent Change from Pre-Treatment
[11] = 168 h, 1 wk, 100% = 2-fold increase, Table 8, read-out: NonHDL-Cholesterol, Percent Change from Pre-Treatment
[12] = 168 h, 1 wk, 100% = 2-fold increase, Table 8, read-out: TG, Percent Change from Pre-Treatment
[13] = 336 h, 2 wk, 100% = 2-fold increase, Table 8, read-out: HDL-Cholesterol, Percent Change from Pre-Treatment
[14] = 336 h, 2 wk, 100% = 2-fold increase, Table 8, read-out: NonHDL-Cholesterol, Percent Change from Pre-Treatment
[15] = 336 h, 2 wk, 100% = 2-fold increase, Table 8, read-out: TG, Percent Change from Pre-Treatment

Structure (SMILES) | melting point [°C] | IC50 [2, 9] [µM] | change in vivo at 100 mg/kg [1, 10] [%] | change in vivo at 100 mg/kg [1, 11] [%] | change in vivo at 100 mg/kg [1, 12] [%] | change in vivo at 100 mg/kg [1, 13] [%] | change in vivo at 100 mg/kg [1, 14] [%] | change in vivo at 100 mg/kg [1, 15] [%] | IC50 ([2]; Table 6) [µM] | also measured
O=C(CCCCCC1(C(=O)O)CCCC1)CCCCCC1(C(=O)O)CCCC1 [Compound 107m, 1-[11-(1-Carboxycyclopentyl)-6-oxoundecyl]-1-cyclopentanecarboxylic acid] | 78 to 85 | – | 12 | -54 | -63 | 27 | -32 | -48 | 2 | –
O=C(CCCCC1(C(=O)O)CCC1)CCCCC1(C(=O)O)CCC1 [Compound 107f, 1-[9-(1-Carboxycyclobutyl)-5-oxononyl]-1-cyclo-butanecarboxylic acid] | 69 to 70 | – | -1 | -32 | -58 | 10 | -40 | -59 | 121 | –
O=C(CCCCCC1(C(=O)O)CC1)CCCCCC1(C(=O)O)CC1 [Compound 107l, 1-[11-(1-Carboxycyclopropyl)-6-oxoundecyl]-1-cyclopropanecarboxylic acid] | 122 to 123 | – | 136 | -92 | -95 | 171 | -83 | -94 | 0.5 | –
O=C(CCCCC1(C(=O)O)CC1)CCCCC1(C(=O)O)CC1 [Compound 107d, 1-[9-(1-Carboxycyclopropyl)-5-oxononyl]-1-cyclopropanecarboxylic acid] | 132 to 134 | – | 180 | 22 | -51 | 260 | 63 | -28 | 0.3 | –
CC(C)(CCCCC(=O)CCCC(C)(C)C(=O)O)C(=O)O [Compound 225, 2,2,11,11-Tetramethyl-6-oxododecanedioc acid] | 72 to 73 | 8 | – | – | – | – | – | – | – | change in vivo at 30 mg/kg [1, 3]: 7%; change in vivo at 30 mg/kg [1, 4]: -17%; change in vivo at 30 mg/kg [1, 5]: -2%; change in vivo at 30 mg/kg [1, 6]: 4%; change in vivo at 30 mg/kg [1, 7]: 92%; change in vivo at 30 mg/kg [1, 8]: -22%
CC(C)(CCCCCC(=O)CCCCCC1(C(=O)O)CC1)C(=O)O [Compound 107k, 13-(1-Carboxycyclopropyl)-2,2-dimethyl-8-oxotridecanoic acid] | 65 to 66 | – | 43 | -90 | -93 | 84 | -99 | -98 | 1 | –
CC(C)(Cc1cccc(C(=O)c2cccc(CC(C)(C)C(=O)O)c2)c1)C(=O)O [Compound 231, 3-{3-[3-(2-Carboxy-2-methylpropyl)-benzoyl]-phenyl}-2,2-dimethylpropionic acid] | 46 to 48 | – | – | – | – | – | – | – | – | change in vivo at 59 mg/kg [1, 3]: 2%; change in vivo at 59 mg/kg [1, 4]: -43%; change in vivo at 59 mg/kg [1, 5]: -24%; change in vivo at 59 mg/kg [1, 6]: 7%; change in vivo at 59 mg/kg [1, 7]: 34%; change in vivo at 59 mg/kg [1, 8]: 7%
CC(C)(CO)CCCC(=O)CCCC(C)(C)CO [Compound 214a, 1,11-Dihydroxy-2,2,10,10-tetramethylundecan-6-one] | – | 27 | – | – | – | – | – | – | – | change in vivo at 100 mg/kg [1, 3]: 24%; change in vivo at 100 mg/kg [1, 4]: -23%; change in vivo at 100 mg/kg [1, 5]: -31%; change in vivo at 100 mg/kg [1, 6]: 2%; change in vivo at 100 mg/kg [1, 7]: 28%; change in vivo at 100 mg/kg [1, 8]: 0%

The next lines start with results.

melting point [°C] | Structure (SMILES) | IC50 [2, 9] [µM] | change in vivo at 100 mg/kg [1, 10] [%] | change in vivo at 100 mg/kg [1, 11] [%] | change in vivo at 100 mg/kg [1, 12] [%] | change in vivo at 100 mg/kg [1, 13] [%] | change in vivo at 100 mg/kg [1, 14] [%] | change in vivo at 100 mg/kg [1, 15] [%] | IC50 ([2]; Table 6) [µM] | also measured
48 to 50 | Cc1ccc(C(C)(CCCCC(=O)CCCCC(C)(C(=O)O)c2ccc(C)cc2)C(=O)O)cc1 (centres unmarked) [Compound 210e, 2,12-Dimethyl-7-oxo-2,12-di-p-tolyltridecanedioic acid] | 100 to 300 | – | – | – | – | – | – | – | change in vivo at 30 mg/kg [1, 3]: 0%; change in vivo at 30 mg/kg [1, 4]: 0%; change in vivo at 30 mg/kg [1, 5]: -11%; change in vivo at 30 mg/kg [1, 6]: 10%; change in vivo at 30 mg/kg [1, 7]: 47%; change in vivo at 30 mg/kg [1, 8]: 12%
44 to 46 | CC(CCCC(=O)CCCC(C)(C(=O)O)c1ccccc1)(C(=O)O)c1ccccc1 (centres unmarked) [Compound 210b, 2,10-Dimethyl-6-oxo-2,10-diphenylundecanedioic acid] | – | – | – | – | – | – | – | – | change in vivo at 100 mg/kg [1, 3]: 4%; change in vivo at 100 mg/kg [1, 4]: 36%; change in vivo at 100 mg/kg [1, 5]: 10%; change in vivo at 100 mg/kg [1, 6]: 12%; change in vivo at 100 mg/kg [1, 7]: 65%; change in vivo at 100 mg/kg [1, 8]: 26%
